Assays:
CDK4/cyclin D1 = CDK4/cyclin D1 (Homo sapiens, UniProt P11802); assay: Assay of kinase activity (ADP-Glo); format: biochemical; conditions: kinase inhibitory activity
Protocol: (§1) CDK/cyclin catalyzes the phosphorylation of a substrate, which concomitantly consumes ATP and produces ADP. The inhibition rate (%) in the presence of a small molecule inhibitor was assessed by measuring the amount of ADP generated in the reaction. The assay compounds were thoroughly mixed by vortexing and then diluted in DMSO to 100× the assay concentration. […] A 2× kinase solution was prepared using a 1× kinase reaction buffer (50 mM Hepes, 10 mM MgCl2, 0.01% Brij35, 2 mM DTT). 2 µL of the kinase solution was transferred to the 384-well assay plate, and the plate was centrifuged at 1000 rpm for 60 seconds in a microplate centrifuge. The plate was incubated at 25 °C in a biochemical incubator for 10 minutes. A 2x mixture of substrate and ATP was prepared in the kinase reaction buffer. Then, 2 µL of the mixture of substrate and ATP was added to the 384-well assay plate. The plate was centrifuged at 1000 rpm for 60 seconds in a microplate centrifuge, and incubated at 25 °C in a biochemical incubator for 60 minutes. 4 µL of ADP-Glo Reagent (Cat. No. V9103, manufacturer: Promega) incubated at 25 °C in a biochemical incubator was added to each well of the 384-well assay plate. The plate was centrifuged at 1000 rpm for 60 seconds in a microplate centrifuge, and incubated at 25 °C in a biochemical incubator for 40 minutes. 8 µL of Detection Reagent incubated at 25 °C in a biochemical incubator was added to each well of the 384-well assay plate. The plate was centrifuged at 1000 rpm for 60 seconds in a microplate centrifuge, and incubated at 25 °C in a biochemical incubator for 40 minutes. Finally, luminescence signals were read using a multifunctional microplate reader (model: PHERAstar FSX, manufacturer: BMG). IC50 values were calculated by nonlinear fitting of the concentration-response curves using GraphPad Prism software.

CDK2/cyclin E = CDK2/cyclin E (Homo sapiens, UniProt P24941); assay: Assay of kinase activity (ADP-Glo); format: biochemical; conditions: kinase inhibitory activity, read-out: CDK2/E1 IC50
Protocol: as §1

[1] = tested on: human breast cancer HCC1806 cells; assay: Assay of cell proliferation (CellTiter-Glo); format: cell-based; conditions: Homo sapiens, 144 h, 6 days, read-out: HCC1806 IC50 of cell proliferation inhibitory activity
Protocol: (§2) Human ovarian cancer OVCAR3 cells were inoculated at 2000 cells/well in a 96-well plate and cultured in RPMI 1640 medium containing 20% FBS at 37 °C and 5% CO2 overnight in an incubator. The next day, the compounds were subjected to a three-fold gradient dilution in DMSO from a peak concentration of 2 mM to give nine concentrations. Then, the compounds were diluted 3:200 in growth medium, and finally diluted 1:3 in the cell culture supernatant to give a culture supernatant containing 0.5% DMSO, with the compounds treatment concentrations ranging from 10 µM to 0.1 nM. The cells and the compounds were incubated at 37 °C and 5% CO2 for 6 days. Then, cell proliferation assay was performed using the CellTiter-Glo (manufacturer: Promega, Cat. No. G9242), and luminescence signals were read using a multifunctional microplate reader (model: Synergy H1, manufacturer: BiotTek). IC50 values were calculated by fitting of the concentration-response curves with a four-parameter analysis method using GraphPad Prism software.
(§3) The cell proliferation assays of human colon cancer HCT-116 cells, human breast cancer MCF-7 cells, human breast cancer HCC1806 cells, human acute myeloid leukemia MV-4-11 cells, and human gastric cancer MKN1 cells were performed according to the same method, with different inoculation densities set according to different cell growth characteristics.

[2] = tested on: human gastric cancer MKN1 cells; assay: Assay of cell proliferation (CellTiter-Glo); format: cell-based; conditions: Homo sapiens, MKN-1, 144 h; MNK1, 6 days; read-out: MKN1 IC50 of cell proliferation inhibitory activity
Protocol: as §2, §3

CDK6/cyclin D3 = CDK6/cyclin D3 (Homo sapiens, UniProt Q00534); assay: Assay of kinase activity (ADP-Glo); format: biochemical; conditions: kinase inhibitory activity
Protocol: (§4) CDK/cyclin catalyzes the phosphorylation of a substrate, which concomitantly consumes ATP and produces ADP. The inhibition rate (%) in the presence of a small molecule inhibitor was assessed by measuring the amount of ADP generated in the reaction. The assay compounds were thoroughly mixed by vortexing and then diluted in DMSO to 100× the assay concentration. 40 nL of a compound was transferred to a 384-well assay plate using a nanoliter pipetting system (ECHO® 655 SYSTEM). A 2× kinase solution was prepared using a 1× kinase reaction buffer (50 mM Hepes, 10 mM MgCl2, 0.01% Brij35, 2 mM DTT). 2 µL of the kinase solution was transferred to the 384-well assay plate, and the plate was centrifuged at 1000 rpm for 60 seconds in a microplate centrifuge. The plate was incubated at 25 °C in a biochemical incubator for 10 minutes. A 2x mixture of substrate and ATP was prepared in the kinase reaction buffer. Then, 2 µL of the mixture of substrate and ATP was added to the 384-well assay plate. The plate was centrifuged at 1000 rpm for 60 seconds in a microplate centrifuge, and incubated at 25 °C in a biochemical incubator for 60 minutes. 4 µL of ADP-Glo Reagent (Cat. No. V9103, manufacturer: Promega) incubated at 25 °C in a biochemical incubator was added to each well of the 384-well assay plate. The plate was centrifuged at 1000 rpm for 60 seconds in a microplate centrifuge, and incubated at 25 °C in a biochemical incubator for 40 minutes. 8 µL of Detection Reagent incubated at 25 °C in a biochemical incubator was added to each well of the 384-well assay plate. The plate was centrifuged at 1000 rpm for 60 seconds in a microplate centrifuge, and incubated at 25 °C in a biochemical incubator for 40 minutes. Finally, luminescence signals were read using a multifunctional microplate reader (model: PHERAstar FSX, manufacturer: BMG). IC50 values were calculated by nonlinear fitting of the concentration-response curves using GraphPad Prism software.

CDK9/cyclin T1 = CDK9/cyclin T1 (Homo sapiens, UniProt P50750); assay: Assay of kinase activity (ADP-Glo); format: biochemical; conditions: kinase inhibitory activity
Protocol: as §4

[3] = tested on: Human ovarian cancer OVCAR3 cells; assay: Assay of cell proliferation (CellTiter-Glo); format: cell-based; conditions: Homo sapiens, OVCAR-3, 144 h, 6 days, read-out: OVCAR3 IC50 of cell proliferation inhibitory activity
Protocol: as §2

Chain of CDK4/cyclin D1 (P11802 whole entry, species assumed): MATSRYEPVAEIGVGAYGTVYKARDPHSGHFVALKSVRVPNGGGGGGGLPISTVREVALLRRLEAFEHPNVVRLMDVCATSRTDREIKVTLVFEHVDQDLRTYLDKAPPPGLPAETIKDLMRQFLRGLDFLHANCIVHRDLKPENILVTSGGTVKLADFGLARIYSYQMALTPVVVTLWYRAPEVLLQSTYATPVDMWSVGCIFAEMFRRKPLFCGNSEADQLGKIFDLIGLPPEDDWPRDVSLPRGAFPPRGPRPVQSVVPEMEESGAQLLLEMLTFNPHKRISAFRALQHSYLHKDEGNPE
Chain of CDK4/cyclin D1 (P24385 whole entry partner, species assumed): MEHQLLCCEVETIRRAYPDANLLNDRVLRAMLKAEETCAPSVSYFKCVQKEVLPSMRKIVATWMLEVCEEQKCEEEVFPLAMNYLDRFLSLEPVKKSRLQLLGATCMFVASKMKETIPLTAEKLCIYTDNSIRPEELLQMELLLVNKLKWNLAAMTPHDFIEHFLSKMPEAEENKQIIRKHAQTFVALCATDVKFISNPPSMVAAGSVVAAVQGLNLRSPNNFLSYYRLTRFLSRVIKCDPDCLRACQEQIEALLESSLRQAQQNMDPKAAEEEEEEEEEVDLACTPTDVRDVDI
Chain of CDK9/cyclin T1 (P50750 whole entry, species assumed): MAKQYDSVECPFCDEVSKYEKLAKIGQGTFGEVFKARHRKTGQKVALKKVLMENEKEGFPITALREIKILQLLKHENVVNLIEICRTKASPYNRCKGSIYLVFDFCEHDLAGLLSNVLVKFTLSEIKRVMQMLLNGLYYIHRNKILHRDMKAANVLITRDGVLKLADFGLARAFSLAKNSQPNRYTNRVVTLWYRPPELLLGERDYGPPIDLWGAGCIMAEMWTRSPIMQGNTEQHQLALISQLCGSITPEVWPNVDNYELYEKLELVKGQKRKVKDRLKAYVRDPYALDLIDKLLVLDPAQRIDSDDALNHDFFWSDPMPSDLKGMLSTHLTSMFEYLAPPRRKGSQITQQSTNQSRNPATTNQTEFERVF
Chain of CDK9/cyclin T1 (O60563 whole entry partner, species assumed): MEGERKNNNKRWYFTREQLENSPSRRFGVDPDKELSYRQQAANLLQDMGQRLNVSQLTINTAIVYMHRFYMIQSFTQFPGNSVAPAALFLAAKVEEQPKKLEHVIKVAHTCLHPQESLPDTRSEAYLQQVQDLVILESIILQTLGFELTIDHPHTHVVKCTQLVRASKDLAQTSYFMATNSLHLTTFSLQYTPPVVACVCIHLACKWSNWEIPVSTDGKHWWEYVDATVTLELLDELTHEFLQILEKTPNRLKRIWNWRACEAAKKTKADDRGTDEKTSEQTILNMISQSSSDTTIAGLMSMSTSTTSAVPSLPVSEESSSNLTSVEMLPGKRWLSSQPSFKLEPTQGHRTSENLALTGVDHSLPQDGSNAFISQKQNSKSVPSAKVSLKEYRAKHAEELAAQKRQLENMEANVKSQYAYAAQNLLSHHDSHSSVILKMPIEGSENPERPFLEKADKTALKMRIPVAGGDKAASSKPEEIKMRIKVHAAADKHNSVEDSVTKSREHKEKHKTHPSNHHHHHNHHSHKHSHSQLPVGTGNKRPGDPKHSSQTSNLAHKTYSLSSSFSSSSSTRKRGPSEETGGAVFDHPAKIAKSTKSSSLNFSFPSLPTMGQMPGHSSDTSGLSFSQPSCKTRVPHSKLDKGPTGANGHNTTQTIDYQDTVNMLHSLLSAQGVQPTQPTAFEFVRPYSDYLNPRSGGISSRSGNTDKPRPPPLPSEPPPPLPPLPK
Chain of CDK6/cyclin D3 (Q00534 whole entry, species assumed): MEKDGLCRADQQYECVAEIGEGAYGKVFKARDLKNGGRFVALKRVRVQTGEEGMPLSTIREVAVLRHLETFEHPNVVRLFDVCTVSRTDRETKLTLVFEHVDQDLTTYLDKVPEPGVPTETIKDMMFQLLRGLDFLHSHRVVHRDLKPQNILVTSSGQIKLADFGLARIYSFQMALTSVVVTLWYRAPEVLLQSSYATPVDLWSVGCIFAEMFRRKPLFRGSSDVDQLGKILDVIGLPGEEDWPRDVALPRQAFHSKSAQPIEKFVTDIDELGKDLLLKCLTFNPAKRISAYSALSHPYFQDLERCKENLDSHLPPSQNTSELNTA
Chain of CDK6/cyclin D3 (P30281 whole entry partner, species assumed): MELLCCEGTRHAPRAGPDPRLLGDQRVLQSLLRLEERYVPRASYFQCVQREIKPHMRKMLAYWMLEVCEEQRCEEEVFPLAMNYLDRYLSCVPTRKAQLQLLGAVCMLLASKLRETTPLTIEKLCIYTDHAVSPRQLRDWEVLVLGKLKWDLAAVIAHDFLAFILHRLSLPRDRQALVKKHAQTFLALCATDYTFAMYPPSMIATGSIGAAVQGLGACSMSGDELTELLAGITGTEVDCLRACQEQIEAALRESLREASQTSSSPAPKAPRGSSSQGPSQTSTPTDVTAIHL

SMILES | IC50 (CDK4/cyclin D1) [nM] | IC50 (CDK2/cyclin E) [nM] | IC50 [1] [nM] | IC50 [2] [nM] | IC50 (CDK6/cyclin D3) [nM] | IC50 (CDK9/cyclin T1) [nM] | IC50 [3] [nM]
CC(C)n1nnc2ccc3cnc(Nc4ccc(C(=O)N5CCN(CCCO)CC5)cc4)nc3c21 [Example I-31, (4-(3-Hydroxypropyl)piperazin-1-yl)(4-((1-isopropyl-1H-[1,2,3]triazolo[4,5-H]quinazolin-8-yl)amino)phenyl)metha none] | 8 | 7 | 273 | 67 | 89 | 380 | 193
CN1CCCN(C(=O)c2ccc(Nc3ncc4ccc5nnn(C6CCCC6)c5c4n3)cc2)CC1 [Example I-42, (4-((1-Cyclopentyl-1H-[1,2,3]triazolo[4,5-H]quinazolin-8-yl)amino)phenyl)(4-methyl-1,4-diazepan-1-yl)methanone] | 1 | 0.06 | 7 | 3 | 4 | 2 | 6
CN[C@H]1CCN(C(=O)c2ccc(Nc3ncc4cc(C(F)F)c5nnn(C(C)C)c5c4n3)cc2)C1 [Example I-44, (S)-(4-((4-(difluoromethyl)-1-isopropyl-1H-[1,2,3]triazolo[4,5-H]quinazolin-8-yl)amino)phenyl)(3-(methylamino)pyrrolidin-1-yl)methanone] | 2 | 0.7 | 404 | 127 | 16 | 140 | 321
CCN1CCN(C(=O)c2ccc(Nc3ncc4ccc5nnn(C(C)C)c5c4n3)cc2)CC1 [Example I-29, (4-Ethylpiperazin-1-yl)(4-((1-isopropyl-1H-[1,2,3]triazolo[4,5-H]quinazolin-8-yl)amino)phenyl)metha none] | 2 | 1 | 207 | 15 | 12 | 6 | 40
O=C(c1ccc(Nc2ncc3ccc4nnn(C5CCCC5)c4c3n2)cc1)N1CCCNCC1 [Example I-41, (4-((1-Cyclopentyl-1H-[1,2,3]triazolo[4,5-H]quinazolin-8-yl)amino)phenyl)(1,4-diazepan-1-yl)methanone] | 1 | 0.08 | 15 | 4 | 5 | 2 | 11
CN(C)[C@H]1CCN(C(=O)c2ccc(Nc3ncc4ccc5nnn(C6CCCC6)c5c4n3)cc2)C1 [Example I-40, (S)-(4-((1-cyclopentyl-1H-[1,2,3]triazolo[4,5-H]quinazolin-8-yl)amino)phenyl)(3-(dimethylamino)pyrrolidin-1-yl)methanone] | 0.7 | 0.06 | 16 | 5 | 3 | 2 | 10
CC(C)n1nnc2ccc3cnc(Nc4ccc(C(=O)N5CCC(N(C)C)CC5)cc4)nc3c21 [Example I-15, (4-(Dimethylamino)piperidin-1-yl)(4-((1-isopropyl-1H-[1,2,3]triazolo[4,5-H]quinazolin-8-yl)amino)phenyl)metha none] | 2 | 1 | 177 | – | 94 | 44 | 264

Continued, values first:

IC50 (CDK4/cyclin D1) [nM] | IC50 (CDK2/cyclin E) [nM] | IC50 [1] [nM] | IC50 [2] [nM] | IC50 (CDK6/cyclin D3) [nM] | IC50 (CDK9/cyclin T1) [nM] | IC50 [3] [nM] | SMILES
3 | 0.8 | 476 | 241 | 36 | 144 | 359 | CC(C)n1nnc2c(C(F)F)cc3cnc(Nc4ccc(C(=O)N5CC[C@H](N(C)C)C5)cc4)nc3c21 [Example I-45, (S)-(4-((4-(Difluoromethyl)-1-isopropyl-1H-[1,2,3]triazolo[4,5-H]quinazolin-8-yl)amino)phenyl)(3-(dimethylamino)pyrrolidin-1-yl)methanone]
4 | 2 | 1740 | 548 | 85 | 100 | 1310 | C[C@H](CO)n1nnc2ccc3cnc(Nc4ccc(C(=O)N5CCNCC5)cc4)nc3c21 [Example I-50, (R)-(4-((1-(1-Hydroxypropan-2-yl)-1H-[1,2,3]triazolo[4,5-H]quinazolin-8-yl)amino)phenyl)(piperazin-1-yl)methanone]
10 | 4 | 5090 | – | 127 | 419 | – | CC(C)(O)Cn1nnc2ccc3cnc(Nc4ccc(C(=O)N5CCNCC5)cc4)nc3c21 [Example I-52, (4-((1-(2-Hydroxy-2-methylpropyl)-1H-[1,2,3]triazolo[4,5-H]quinazolin-8-yl)amino)phenyl)(piperazin-1-yl)methanone]
7 | 3 | 5500 | – | 205 | 344 | – | C[C@@H](CO)n1nnc2ccc3cnc(Nc4ccc(C(=O)N5CCNCC5)cc4)nc3c21 [Example I-48, (S)-(4-((1-(1-Hydroxypropan-2-yl)-1H-[1,2,3]triazolo[4,5-H]quinazolin-8-yl)amino)phenyl)(piperazin-1-yl)methanone]
21 | 3 | 2160 | – | 401 | 390 | 1370 | C[C@@H](CO)n1nnc2ccc3cnc(Nc4ccc(C(=O)N5CCOCC5)cc4)nc3c21 [Example I-49, (S)-(4-((1-(1-Hydroxypropan-2-yl)-1H-[1,2,3]triazolo[4,5-H]quinazolin-8-yl)amino)phenyl)(morpholino)methanone]
49 | 8 | 3170 | – | 803 | 995 | 1720 | CC(C)(O)Cn1nnc2ccc3cnc(Nc4ccc(C(=O)N5CCOCC5)cc4)nc3c21 [Example I-53, (4-((1-(2-Hydroxy-2-methylpropyl)-1H-[1,2,3]triazolo[4,5-H]quinazolin-8-yl)amino)phenyl)(morpholino)methanone]

From patent EP4711369A1, “1H-[1,2,3]TRIAZOLO[4,5-H]QUINAZOLINE COMPOUNDS AS PROTEIN KINASE INHIBITORS” (Chengdu Cynogen Bio-Pharmaceutical Technology Co., Ltd., priority 2023, dated 2024)
